Test results published in ChEMBL document CHEMBL3638865, “Macrocycles as factor XIa inhibitors” (2014).

Molecular target: Coagulation factor XI (Homo sapiens, UniProt P03951)
Test: In Vitro Assay: The effectiveness of compounds of the present invention as inhibitors of the coagulation Factors XIa, VIIa, IXa, Xa, XIIa, plasma kallikrein or thrombin, can be determined using a relevant purified serine protease, respectively, and an appropriate synthetic substrate. The rate of hydrolysis of the chromogenic or fluorogenic substrate by the relevant serine protease was measured both in the absence and presence of compounds of the present invention. […] A decrease in the rate of absorbance or fluorescence change in the presence of inhibitor is indicative of enzyme inhibition. Factor XIa determinations were made in 50 mM HEPES buffer at pH 7.4.

Chain of Coagulation factor XI (P03951 19-387 limits assumed): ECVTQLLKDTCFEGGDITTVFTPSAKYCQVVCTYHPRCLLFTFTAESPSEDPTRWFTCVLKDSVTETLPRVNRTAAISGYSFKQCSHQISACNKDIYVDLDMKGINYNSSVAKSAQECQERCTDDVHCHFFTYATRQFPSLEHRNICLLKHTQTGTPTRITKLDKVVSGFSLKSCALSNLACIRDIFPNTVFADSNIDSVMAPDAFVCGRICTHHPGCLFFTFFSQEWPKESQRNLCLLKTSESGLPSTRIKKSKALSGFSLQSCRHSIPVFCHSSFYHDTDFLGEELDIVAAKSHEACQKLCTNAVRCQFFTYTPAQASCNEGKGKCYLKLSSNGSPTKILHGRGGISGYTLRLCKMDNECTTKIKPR
Chain of Coagulation factor XI (P03951 388-625 limits assumed): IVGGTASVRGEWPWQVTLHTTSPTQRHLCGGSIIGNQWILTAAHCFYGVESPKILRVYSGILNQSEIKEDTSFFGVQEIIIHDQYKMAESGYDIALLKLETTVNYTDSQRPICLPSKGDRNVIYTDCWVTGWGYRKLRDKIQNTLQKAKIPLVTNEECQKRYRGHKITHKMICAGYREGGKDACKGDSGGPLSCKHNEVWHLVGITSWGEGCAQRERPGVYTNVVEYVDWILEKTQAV

- Ki: 8.12 µM
Structure (SMILES): COC(=O)Nc1ccc2c(c1)CNC(=O)c1ccc(cc1)C[C@H](NC(=O)/C=C/c1cc(Cl)ccc1-n1cnnn1)c1nc-2c(Cl)[nH]1
